In patent publication US9145415B2, “Nitrogen-containing heterocyclic compound or salt thereof” (FUJIFILM Corporation, priority 2012, dated 2015):
Read-outs that look alike come from different tables or passages of the source.

Assays:
[1] = biological target: T1, human FLT3 protein (FLT3 (WT)) (Homo sapiens, UniProt P36888); assay: FLT3 inhibition test (FLT3 enzyme inhibition, time-resolved fluorescence of substrate peptide phosphorylation); format: biochemical; conditions: GST-fused human FLT3 (564 to 993 aa), ATP 50 μM; read-out: FLT3 (WT) enzyme inhibition activity
T1 construct: human FLT3 protein (intracellular region, 564 to 993 aa); GST; purchased Carna Biosciences; host or cells: baculovirus expression system
T1 sequence (P36888 564-993): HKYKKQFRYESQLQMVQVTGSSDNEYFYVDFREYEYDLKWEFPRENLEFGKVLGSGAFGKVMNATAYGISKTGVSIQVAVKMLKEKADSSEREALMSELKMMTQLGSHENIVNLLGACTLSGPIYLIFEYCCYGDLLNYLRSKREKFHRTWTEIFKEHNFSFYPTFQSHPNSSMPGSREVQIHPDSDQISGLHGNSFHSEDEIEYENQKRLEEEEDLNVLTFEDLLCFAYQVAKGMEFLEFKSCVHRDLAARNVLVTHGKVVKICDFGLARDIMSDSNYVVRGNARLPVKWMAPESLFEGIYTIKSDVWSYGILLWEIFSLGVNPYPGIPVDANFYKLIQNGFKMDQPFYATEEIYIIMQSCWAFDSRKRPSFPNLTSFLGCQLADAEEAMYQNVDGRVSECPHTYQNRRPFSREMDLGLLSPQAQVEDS
Method: The FLT3 inhibition test was performed for the compounds of the present invention by the method described below.
A reaction mixture in a volume of 9 μL containing the FLT3 protein and a test compound of a predetermined concentration (1.2 μg of FLT3, 100 mM HEPES, 10 mM MgCl2, 25 mM NaCl, 0.01% BSA, 1 mM DTT, pH 7.5) was left standing at 25° C. for 15 minutes. […] (Toray Industries), and 3 μL (final concentration 50 μM) of ATP (Sigma-Aldrich) were added to the reaction mixture, and the mixture was shaken for 2 minutes, and then further left standing at 25° C. for 30 minutes to allow the enzymatic reaction.

Molm-13 cells = assay: Leukemia cell proliferation inhibition test (ATPlite), Molm-13; format: cell-based; conditions: Molm-13, 72 hours culture, ATPlite, GI50 per method, read-out: MOLM13 cell proliferation inhibition effect
Method: (§1) A leukemia cell proliferation inhibition test was performed for the compounds of the present invention by using the leukemia cell strains MV4-11 (ATCC Number, CRL-9591) and Molm-13 (DSMZ Number, ACC554).
(§2) The leukemia cell proliferation inhibition test was performed by the method described below.
(§3) For the purpose of measuring proliferation inhibition attained with a compound, the total cell count was quantified on the basis of the total cellular ATP concentration using the ATPlite (PerkinElmer) reagent utilizing firefly luciferase. The Molm-13 or MV4-11 cells were added to the RPMI medium containing penicillin and streptomycin (penn/strep) and 10% FBS at a density of 2×10^5 cells/ml, and 50 μL (10,000 cells) of the cell suspension was inoculated to each well of a 96-well plate (Corning).
(§4) A serially diluted solution of a compound or 0.1% DMSO (solvent control) in a volume of 50 μL was added to the cells, and then the cells were cultured for 72 hours under the standard cell proliferation conditions (37° C., 5% CO2) to allow proliferation of the cells. In order to measure the proliferation of the total cells, equal volume of the ATPlite reaction mixture was added to each well in accordance with the instructions attached to ATPlite, and then luminescence count of the well was measured (relative light unit, RLU).
(§5) The RLU signal observed with the DMSO solvent control after 72 hours of the culture was defined as a signal indicating 0% inhibition, and the GI50 value for the proliferation inhibition corresponds to a concentration of a compound that provides 50% inhibition based on the proliferation of the total cells contained in the DMSO solvent control. Each data point was obtained from samples in duplicate. The GI50 values were calculated by the non-linear regression fitting (Fit Model (205)) according to a sigmoid dose-reaction equation using the XLfit software.

MV4-11 cells = assay: Leukemia cell proliferation inhibition test (ATPlite), MV4-11; format: cell-based; conditions: MV4-11, 72 hours culture, ATPlite, GI50 per method, read-out: MV4-11 cell proliferation inhibition effect
Method: as §1, §2, §3, §4, §5

Structure (SMILES)	IC50 [1] [nM]	IC50 (Molm-13 cells; Homo sapiens, MOLM-13, 72 h) [nM]	IC50 (MV4-11 cells; Homo sapiens, MV4-11, 72 h) [nM]	IC50 (Molm-13 cells) [nM]	IC50 (MV4-11 cells) [nM]
C[C@@H](C(=O)NCCCC#Cc1cnc(Nc2cncc(F)c2)nc1NC1CC1)N(C)C(=O)/C=C/CN(C)C [Compound 9-22]	< 10	10 to 100	< 10		
CCCNc1nc(NCC)ncc1C#CCCCNC(=O)[C@H](C)N(C)C(=O)/C=C/CN(C)C [Compound 11-3]	10 to 100	100 to 1000	100 to 1000		
C=CC(=O)NCCOc1cccc(NC(=O)c2cnc(NCCc3ccncc3)nc2NCCC)c1 [Compound 2-20]	< 10	10 to 100	10 to 100		
CCCNc1nc(Nc2ccc(OC(F)(F)F)cc2)ncc1C#CCCCNC(=O)[C@H](C)N(C)C(=O)/C=C/CN(C)C [Compound 12-6]	10 to 100	100 to 1000	10 to 100		
CCNc1nc(Nc2ccc(C#N)cc2)ncc1C#CCCCNC(=O)[C@H](C)N(C)C(=O)/C=C/CN(C)C [Compound 10-46]	< 10	< 10	< 10		
CNc1nc(Nc2cccc(C#N)c2)ncc1C#C[C@H]1C[C@@H](NC(=O)[C@H](C)N(C)C(=O)/C=C/CN(C)C)C1 [Compound 13-15, (E)-N—((S)-1-(((1S,3R)-3-((2-((3-Cyanophenyl)amino)-4-(methylamino)pyrimidin-5-yl)ethynyl)cyclobutyl)amino)-1-oxopropan-2-yl)-4-(dimethylamino)-N-methyl-2-butenamide]	< 10	< 10	< 10		
CNc1nc(Nc2cccc(C#N)c2)ncc1C#C[C@@H]1CCC[C@H](NC(=O)[C@H](C)N(C)C(=O)/C=C/CN(C)C)C1 [Compound 21-1, (E)-N—((S)-1-(((1S,3R)-3-((2-((3-cyanophenyl)amino)-4-(methylamino)pyrimidin-5-yl)ethynyl)cyclohexyl)amino)-1-oxopropan-2-yl)-4-(dimethylamino)-N-methyl-2-butenamide]	< 10	< 10	< 10		
CCCNc1nc(Nc2cccc(F)c2)ncc1-c1cc(CCNC(=O)[C@H](C)N(C)C(=O)/C=C/CN(C)C)on1 [Compound 17-3, (S,E)-4-(dimethylamino)-N-(1-((2-(3-(2-((3-fluorophenyl)amino)-4-(propylamino)pyrimidin-5-yl)isoxazol-5-yl)ethyl)amino)-1-oxopropan-2-yl)-N-methyl-2-butenamide]	< 10	10 to 100	10 to 100		
CNc1nc(Nc2ccc(C#N)cc2)ncc1C#CCCCNC(=O)[C@H](C)N(C)C(=O)/C=C/CN(C)C [Compound 10-45]	< 10	< 10	< 10		
CCCNc1nc(Nc2ccc(C#N)cc2)ncc1C#CCCCNC(=O)[C@@H]1C[C@@H](F)CN1C(=O)/C=C/CN(C)C [Compound 7-48]	< 10	< 10	< 10		
CCCNc1nc(Nc2ccc(C#N)cc2)ncc1C#CCCCNC(=O)[C@@H]1C[C@@H](O)CN1C(=O)/C=C/CN(C)C [Compound 7-68]	< 10	< 10	< 10		
CCCNc1nc(Nc2ccc(C(N)=O)cc2)ncc1C(=O)NCCCNC(=O)[C@H](C)NC(=O)/C=C/CN(C)C [Compound 5-4]	< 10	100 to 1000	100 to 1000		
CCCNc1nc(Nc2cccc(F)c2)ncc1C#CCCCNC(=O)[C@@H]1C[C@H](F)CN1C(=O)/C=C/CN(C)C [Compound 7-49]	< 10	< 10	< 10		
CCCNc1nc(Nc2ccc(C(N)=O)cc2)ncc1C(=O)Nc1cccc(NC2CCN(C(=O)/C=C/CN(C)C)C2)c1 (stereo not drawn) [Compound 3-20]	< 10	100 to 1000	10 to 100		
C[C@@H](C(=O)NCCCC#Cc1cnc(Nc2ccc(C#N)cc2)nc1N1CCC(F)CC1)N(C)C(=O)/C=C/CN(C)C [Compound 10-41]	< 10	< 10	< 10		
CCCNc1nc(Nc2ccc(C(N)=O)cc2)ncc1C#Cc1cccc(NC(=O)[C@H](C)N(C)C(=O)/C=C/CN(C)C)c1 [Compound 8-14]	< 10			10 to 100	< 10
C=CC(=O)N(C)CC(=O)NCCCNC(=O)c1cnc(NCCc2ccncc2)nc1NCCC [Compound 2-23]	< 10	< 10	10 to 100		
CCCN(CCC)c1nc(Nc2cccc(F)c2)ncc1C#CCCCNC(=O)[C@H](C)N(C)C(=O)/C=C/CN(C)C [Compound 10-10]	< 10	< 10	< 10		
CNc1nc(Nc2ccc(F)cc2)ncc1C#CCCCNC(=O)[C@@H]1CCN1C(=O)/C=C/CN(C)C [Compound 7-86, (S,E)-1-(4-(Dimethylamino)-2-butenoyl)-N-(5-(2-((4-fluorophenyl)amino)-4-(methylamino)pyrimidin-5-yl)-4-pentyn-1-yl)azetidine-2-carboxamide]	< 10	< 10	< 10		
CCCNc1nc(Nc2ccc(C(N)=O)cc2)ncc1C(=O)Nc1cccc(NC(=O)[C@H](C)N(C)C(=O)/C=C/CN(C)C)c1 [Compound 3-1, (S,E)-2-((4-carbamoylphenyl)amino)-N-(3-(2-(4-(dimethylamino)-N-methyl-2-butenamido)propanamido)phenyl)-4-(propylamino)pyrimidine-5-carboxamide]	< 10	< 10	< 10		
CCCNc1nc(Nc2ccc(F)cc2)ncc1C#C[C@H]1C[C@@H](NC(=O)[C@H](C)N(C)C(=O)/C=C/CN(C)C)C1 [Compound 13-18]	< 10	< 10	< 10		
CCCNc1nc(Nc2ccc(F)c(F)c2)ncc1C#CCCCNC(=O)[C@H](C)N(C)C(=O)/C=C/CN(C)C [Compound 7-41]	< 10	< 10	< 10		
C[C@@H](C(=O)N[C@H]1CCC[C@@H](C#Cc2cnc(Nc3ccnc(F)c3)nc2NC2CC2)C1)N(C)C(=O)/C=C/CN(C)C [Compound 14-2]	< 10	< 10	< 10		
CNc1nc(Nc2ccnc(OC)c2)ncc1C#CCCCNC(=O)[C@H](C)N(C)C(=O)/C=C/CN(C)C [Compound 9-39]	< 10	< 10	< 10		
C[C@@H](C(=O)NCCCC#Cc1cnc(Nc2cccc(C#N)c2)nc1N1CCOCC1)N(C)C(=O)/C=C/CN(C)C [Compound 9-2]	< 10	10 to 100	10 to 100		
